Measured values as given in patent US20240024273A1, “TOPICAL ADMINISTRATION OF 2-(DIETHYLAMINO)ETHYL 2-(4-ISOBUTYLPHENYL)PROPRIONATE FOR TREATMENT OF DISEASES” (TECHFIELDS PHARMA CO., LTD., priority 2020, published 2024).

Tested on: Subjects with Osteoarthritis of the Knee
Test: Second Phase 2 study: safety (treatment-emergent adverse events)
Type: in vivo, human
Conditions: BID
Excerpt: Safety assessments will be performed at each visit and will include assessment of AEs, vital signs (blood pressure, pulse rate, and oral temperature), clinical laboratories, physical examination, skin irritation, and electrocardiograms (ECGs) as indicated in the study flow chart, Table 47.
Safety assessments will include AEs, vital signs (blood pressures, pulse rate, and oral temperature), clinical laboratories, physical examination, skin irritation, and ECGs at various time points during the study as indicated in the study flow chart.
Adverse events of interest include: local skin reactions around the treated knee(s), upper stomach pain, GI bleeding, serious cardiovascular side effects (e.g., thrombotic events, myocardial infarction, or stroke), jaundice, elevated liver function tests, and nausea.
Safety analyses will be conducted on the SAS. Safety parameters will be listed and summarized using standard descriptive statistics, as appropriate. No formal statistical analyses are planned.

[1] = moderate adverse events, 4.375 mg/knee, N = 71
[2] = moderate adverse events, 8.75 mg/knee, N = 70
[3] = possibly, probably, or definitely related to study drug, 4.375 mg/knee, N = 71
[4] = possibly, probably, or definitely related to study drug, 8.75 mg/knee, N = 70
[5] = possibly, probably, or definitely related to study drug, 17.5 mg/knee, N = 70

CCN(CC)CCOC(=O)C(C)c1ccc(CC(C)C)cc1 (stereo not shown) [2-(diethylamino)ethyl 2-(4-isobutylphenyl)propionate]
Gastroenteritis: subjects with adverse events [1]: 1 | Gastroesophageal reflux disease: number of adverse events [1]: 1 | Gastroesophageal reflux disease: percentage of subjects with adverse events [1]: 1.4% | Gastroesophageal reflux disease: subjects with adverse events [1]: 1 | Total Adverse Events: number of adverse events [1]: 3 | Total Adverse Events: percentage of subjects with adverse events [1]: 4.2% | Total Adverse Events: subjects with adverse events [1]: 3 | Upper Respiratory Tract Infection: number of adverse events [1]: 1 | Upper Respiratory Tract Infection: percentage of subjects with adverse events [1]: 1.4% | Upper Respiratory Tract Infection: subjects with adverse events [1]: 1 | Total Adverse Events: number of adverse events [2]: 4 | Total Adverse Events: percentage of subjects with adverse events [2]: 5.7% | Total Adverse Events: subjects with adverse events [2]: 4 | Upper Respiratory Tract Infection: number of adverse events [2]: 4 | Upper Respiratory Tract Infection: percentage of subjects with adverse events [2]: 1.4% | Upper Respiratory Tract Infection: subjects with adverse events [2]: 4 | Abdominal Pain Upper: number of adverse events [3]: 1 | Abdominal Pain Upper: percentage of subjects with adverse events [3]: 1.4% | Abdominal Pain Upper: subjects with adverse events [3]: 1 | Administration Site Conditions: number of adverse events [3]: 1 | Administration Site Conditions: percentage of subjects with adverse events [3]: 1.4% | Administration Site Conditions: subjects with adverse events [3]: 1 | Alanine Aminotransferase Increased: number of adverse events [3]: 1 | Alanine Aminotransferase Increased: percentage of subjects with adverse events [3]: 1.4% | Alanine Aminotransferase Increased: subjects with adverse events [3]: 1 | Application Site Irritation: number of adverse events [3]: 1 | Application Site Irritation: percentage of subjects with adverse events [3]: 1.4% | Application Site Irritation: subjects with adverse events [3]: 1 | Aspartate Aminotransferase Increased: number of adverse events [3]: 3 | Aspartate Aminotransferase Increased: percentage of subjects with adverse events [3]: 4.2% | Aspartate Aminotransferase Increased: subjects with adverse events [3]: 3 | Gamma-Glutamyltransferase Increased: number of adverse events [3]: 2 | Gamma-Glutamyltransferase Increased: percentage of subjects with adverse events [3]: 2.8% | Gamma-Glutamyltransferase Increased: subjects with adverse events [3]: 2 | Headache: number of adverse events [3]: 1 | Headache: percentage of subjects with adverse events [3]: 1.4% | Headache: subjects with adverse events [3]: 1 | Hypertriglyceridemia: number of adverse events [3]: 6 | Hypertriglyceridemia: percentage of subjects with adverse events [3]: 7.0% | Hypertriglyceridemia: subjects with adverse events [3]: 5 | Positive Fecal Occult Blood Test: number of adverse events [3]: 6 | Positive Fecal Occult Blood Test: percentage of subjects with adverse events [3]: 7.0% | Positive Fecal Occult Blood Test: subjects with adverse events [3]: 5 | Throat Irritation: number of adverse events [3]: 2 | Throat Irritation: percentage of subjects with adverse events [3]: 2.8% | Throat Irritation: subjects with adverse events [3]: 2 | Total Adverse Events: number of adverse events [3]: 26 | Total Adverse Events: percentage of subjects with adverse events [3]: 33.8% | Total Adverse Events: subjects with adverse events [3]: 24 | White Blood Cell Count Decreased: number of adverse events [3]: 2 | White Blood Cell Count Decreased: percentage of subjects with adverse events [3]: 2.8% | White Blood Cell Count Decreased: subjects with adverse events [3]: 2 | Abdominal Discomfort: number of adverse events [4]: 4 | Abdominal Discomfort: percentage of subjects with adverse events [4]: 4.3% | Abdominal Discomfort: subjects with adverse events [4]: 3 | Abdominal Pain Upper: number of adverse events [4]: 1 | Abdominal Pain Upper: percentage of subjects with adverse events [4]: 1.4% | Abdominal Pain Upper: subjects with adverse events [4]: 1 | Administration Site Conditions: number of adverse events [4]: 1 | Administration Site Conditions: percentage of subjects with adverse events [4]: 1.4% | Administration Site Conditions: subjects with adverse events [4]: 1 | Alanine Aminotransferase Increased: number of adverse events [4]: 1 | Alanine Aminotransferase Increased: percentage of subjects with adverse events [4]: 1.4% | Alanine Aminotransferase Increased: subjects with adverse events [4]: 1 | Application Site Irritation: number of adverse events [4]: 1 | Application Site Irritation: percentage of subjects with adverse events [4]: 1.4% | Application Site Irritation: subjects with adverse events [4]: 1 | Diarrhoea: number of adverse events [4]: 2 | Diarrhoea: percentage of subjects with adverse events [4]: 2.9% | Diarrhoea: subjects with adverse events [4]: 2 | Dizziness: number of adverse events [4]: 2 | Dizziness: percentage of subjects with adverse events [4]: 2.9% | Dizziness: subjects with adverse events [4]: 2 | Headache: number of adverse events [4]: 6 | Headache: percentage of subjects with adverse events [4]: 5.7% | Headache: subjects with adverse events [4]: 4 | Hypertriglyceridemia: number of adverse events [4]: 3 | Hypertriglyceridemia: percentage of subjects with adverse events [4]: 4.3% | Hypertriglyceridemia: subjects with adverse events [4]: 3 | Positive Fecal Occult Blood Test: number of adverse events [4]: 6 | Positive Fecal Occult Blood Test: percentage of subjects with adverse events [4]: 7.1% | Positive Fecal Occult Blood Test: subjects with adverse events [4]: 5 | Throat Irritation: number of adverse events [4]: 1 | Throat Irritation: percentage of subjects with adverse events [4]: 1.4% | Throat Irritation: subjects with adverse events [4]: 1 | Total Adverse Events: number of adverse events [4]: 34 | Total Adverse Events: percentage of subjects with adverse events [4]: 41.4% | Total Adverse Events: subjects with adverse events [4]: 29 | White Blood Cell Count Decreased: number of adverse events [4]: 2 | White Blood Cell Count Decreased: percentage of subjects with adverse events [4]: 2.9% | White Blood Cell Count Decreased: subjects with adverse events [4]: 2 | Abdominal Discomfort: number of adverse events [5]: 1 | Abdominal Discomfort: percentage of subjects with adverse events [5]: 1.4% | Abdominal Discomfort: subjects with adverse events [5]: 1 | Abdominal Pain Upper: number of adverse events [5]: 2 | Abdominal Pain Upper: percentage of subjects with adverse events [5]: 1.4% | Abdominal Pain Upper: subjects with adverse events [5]: 1 | Administration Site Conditions: number of adverse events [5]: 4 | Administration Site Conditions: percentage of subjects with adverse events [5]: 5.7% | Administration Site Conditions: subjects with adverse events [5]: 4 | Application Site Irritation: number of adverse events [5]: 1 | Application Site Irritation: percentage of subjects with adverse events [5]: 1.4% | Application Site Irritation: subjects with adverse events [5]: 1 | Application Site Rash: number of adverse events [5]: 3 | Application Site Rash: percentage of subjects with adverse events [5]: 4.3% | Application Site Rash: subjects with adverse events [5]: 3 | Aspartate Aminotransferase Increased: number of adverse events [5]: 1 | Aspartate Aminotransferase Increased: percentage of subjects with adverse events [5]: 1.4% | Aspartate Aminotransferase Increased: subjects with adverse events [5]: 1 | Dizziness: number of adverse events [5]: 1 | Dizziness: percentage of subjects with adverse events [5]: 1.4% | Dizziness: subjects with adverse events [5]: 1 | Headache: number of adverse events [5]: 1 | Headache: percentage of subjects with adverse events [5]: 1.4% | Headache: subjects with adverse events [5]: 1 | Hypertriglyceridemia: number of adverse events [5]: 6 | Hypertriglyceridemia: percentage of subjects with adverse events [5]: 8.6% | Hypertriglyceridemia: subjects with adverse events [5]: 6 | Positive Fecal Occult Blood Test: number of adverse events [5]: 5 | Positive Fecal Occult Blood Test: percentage of subjects with adverse events [5]: 7.1% | Positive Fecal Occult Blood Test: subjects with adverse events [5]: 5 | Total Adverse Events: number of adverse events [5]: 25 | Total Adverse Events: percentage of subjects with adverse events [5]: 35.7% | Total Adverse Events: subjects with adverse events [5]: 25
